“Also recorded” adds a separate entry of the source.
What was measured:
[1] = system: Pseudomonas aeruginosa RhlA; test: Quorum sensing bioluminescence reporter assay; assay type: cell-based; conditions: C4 AI, high volume
Procedure: (§1) FIGS. 8A-8E are vertical bar graphs showing bioluminescence screening of quorum sensing (QS) inhibition or activation in the presence of synthetic Tryptophol acetate. The assay was performed using mutant bacteria lacking genes encoding autoinducers. Bacteria were also cloned with a bioluminescence reporter plasmid. N-acyl Homoserine Lactone (AHL) was used for activation (agonist) or inhibition (antagonist) of the following bacteria: Agrobacterium tumefaciens, which responds to the C8 autoinducer (AI), Vibrio cholerae responds to the CAI1 autoinducer, Pseudomonas aeruginosa RhlA responds to the C4 AI and Pseudomonas aeruginosa LasR responds to the C12 AI.
(§2) Bioluminescence assay was performed with mutant bacteria lacking the nucleotide sequences encoding the relevant autoinducers (AI). Additionally, the bacteria were cloned with bioluminescence reporter plasmids in order to measure their luminescence intensity when quorum sensing gene expression occurs. Ninety-six (96) well microtiter plate assays were used to assess AI activation (agonist) or inhibition (antagonist) of the following bacteria: Agrobacterium tumefaciens, which responds to the C8 autoinducer, and both Vibrio cholerae and Vibrio harveyi, which respond to the (S)-4,5-dihydroxy-2,3-pentanedione (DPD) autoinducer to communicate.

[2] = system: Pseudomonas aeruginosa LasR; test: Quorum sensing bioluminescence reporter assay; assay type: cell-based; conditions: C12 AI
Procedure: as §1, §2

P. aeruginosa (PA01) = test: Static biofilm assay (CLSM); assay type: cell-based, Pseudomonas aeruginosa; conditions: 20 μM
Procedure: (§3) For static biofilm assay, overnight cultures of P. aeruginosa (PA01), Salmonella and Staphylococcus aureus strains were diluted 1:10 in fresh LB medium containing a final concentration of synthesized molecule (203) of 20 or 50 μM, or DMSO (up to 1%) as control. Biofilms were grown under non-shaking conditions at 37° C. in 96-well plate (Thermo Scientific, Rochester, N.Y., USA). […] The stained cells were washed twice with PBS. Biofilm images were taken by CLSM (Plan-Apochromat 20×/0.8 M27, Zeiss LSM880, Germany).
(§4) P. aeruginosa PA01, Salmonella and Staphylococcus aureus strains were incubated for 24 hr at 37° C. The bacterial suspension was diluted 1:10 with fresh LB and incubated for 3 h with the kefir biomass crude extract molecules or with DMSO as a control (refreshment sample). In all cultures, DMSO concentration was up to 1% (v/v). 200 μl of the broth medium mix with yogurt extract or with DMSO as control were placed in each well of a 96-well plate (Thermo Scientific, Rochester, N.Y., USA). 2 μl refreshment samples were added to each suitable well. The plate incubated for 24 hr at 37° C. After the incubation the samples washed three times with PBS. For visualizing of viable cells, the bacteria were stained green and dead cells stained red using the BacLight® Dead/Live Kit (Invitrogen, Eugene, Oreg., USA). The stained cells were washed twice with PBS. […]

[3] = system: P. aeruginosa (PA01), Salmonella and Staphylococcus aureus strains; test: Bacterial cell growth/viability (BacLight Dead/Live); assay type: cell-based
Procedure: as §3, §4

Staphylococcus aureus = test: Static biofilm assay (CLSM); assay type: cell-based; conditions: 50 μM
Procedure: as §3, §4

amyloid beta (αβ1-42) [4] = molecular target: T1, amyloid beta (αβ1-42) (Homo sapiens, UniProt P05067); test: Surface plasmon resonance, anti-amyloid oligomer antibody chip; assay type: binding; conditions: 30 μM αβ1-42, 6-200 μM
T1 construct: samples containing 30 μM amyloid beta [4(1-42)] in the absence or presence of tryptophol acetate
T1 sequence (P05067 672-713 limits assumed): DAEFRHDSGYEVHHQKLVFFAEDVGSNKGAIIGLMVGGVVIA
Procedure: SPR sensor chip with Oligomer All antibody, an anti-amyloid oligomer conformation-specific antibody was tested with samples containing 30 μM 4(1-42) in the absence or presence of tryptophol acetate in different concentrations.

amyloid beta (αβ1-42) [5] = molecular target: T1, amyloid beta (αβ1-42); test: Transmission electron microscopy of fibrillation; assay type: biochemical; conditions: 24 hr, 37° C.
Procedure: TEM grids were prepared after 24 hr incubation at 37° C. of samples containing 30 μM 4(1-42) in the absence or presence of tryptophol acetate in different concentrations.

Salmonella = test: Static biofilm assay (CLSM); assay type: cell-based, Salmonella enteritidis; conditions: 50 μM
Procedure: as §3, §4

[6] = system: Agrobacterium tumefaciens A136; test: Quorum sensing bioluminescence reporter assay; assay type: cell-based; conditions: C8 (3-oxo-C8-HSL) autoinducer
Procedure: Agrobacterium tumefaciens A136 pCF218 pMV26 culture was grown in Luria-Bertani broth (LB; Miller's broth) supplemented with 25 μg/ml of kanamycin and 4.5 μg/ml of tetracycline at 28-30° C. for 24 h. […] The overnight cultures were diluted to an absorbance density (OD600) of 0.05 by fresh LB medium. […] Luminescence was measured every 20 min for 19 h with continuous shaking at 30° C., using a Microtiter Plate Reader (Varioskan Flash, Thermo). Average luminescence values divided by OD600 values were plotted against the added compound concentration.
The effect of the Kefir biomass crude extract molecules on the following bacteria, A. tumefaciens A136, V. cholerae MM920 and V. harveyi MM30 were measured as described by Brenier et al. (2008). […]

**Q.** With `CC(=O)OCCc1c[nH]c2ccccc12` [Tryptophol acetate] as the molecule, how does the “Effect on QS in P. aeruginosa (RhlA)” value [1] read?
**A.** Its value is “low inhibition effect”.

**Q.** What about the “Effect on QS in P. aeruginosa (LasR)” value [2] of the same molecule?
**A.** The value was “low inhibition effect”.

**Q.** What about the “Biofilm formation, P. aeruginosa” value (P. aeruginosa (PA01)) of the same molecule?
**A.** Its value is “did not seem to affect biofilm formation; also recorded: No influence”.

**Q.** And the “Bacterial cell growth / viability” value [3]?
**A.** The value was “did not impact cell growth”.

**Q.** And the “Biofilm formation, Staphylococcus aureus” value (Staphylococcus aureus)?
**A.** Its value is “significant influence on biofilm formation”.

**Q.** What about the “Inhibition of amyloid beta (SPR)” value (amyloid beta (αβ1-42) [4]) of the same molecule?
**A.** The value was “dose dependent manner”.

**Q.** And the “Fibrillation formation (TEM)” value (amyloid beta (αβ1-42) [5])?
**A.** Its value is “significantly inhibited”.

**Q.** And the “Biofilm formation, Salmonella” value (Salmonella)?
**A.** Its value is “significant influence on biofilm formation”.

**Q.** What about the “Effect on QS in A. tumefaciens” value [6] of the same molecule?
**A.** The value was “inhibits QS”.

Reference: US20220160680A1, “MICROORGANISM MIXTURES, MOLECULES DERIVED THEREFROM, AND METHODS OF USE THEREOF” (B. G. Negev Technologies and Applications Ltd., at …, priority 2018, published 2022)
